Test results: PMC9268305, “The Pharmacokinetics in Mice and Cell Uptake of Thymus Immunosuppressive Pentapeptide Using LC-MS/MS Analysis” (Molecules, 2022)
“Also recorded” adds a separate entry of the source. Where a SMILES comes first, the peptide text is derived from it. The star is where a group is joined. FITC = O=C1OC2(c3ccc(O)cc3Oc3cc(O)ccc32)c2ccc(NC(=S)*)cc21; Ahx = NCCCCCC(=O)O

Legend:
[1] = Stability of TIPP in processed murine plasma samples (LC-MS/MS validation); type: in vitro ADME, mouse; details: compared to nominal concentration, mean ± SD, n = 3, in % (unit assumed)
Method: The stability of TIPP in plasma samples was investigated under different conditions. To evaluate autosampler stability, long-term stability, and short-term stability, up to three replicates of LQC and HQC plasma samples were evaluated when the samples were stored at room temperature for 4 h, at 4 °C for 24 h, and at −80 °C for 4 weeks, respectively. Freeze–thaw stability was also assessed in three cycles from −80 to 25 °C. Concentrations were determined using a TIPP calibrator of the respective validation day. Obtained results were compared to nominal concentrations to determine the stability.

[2] = Sample-preparation stability/recovery of TIPP in water and murine plasma, with stabilizers; type: in vitro ADME, mouse
Method: TIPP stock solutions were separately diluted in TDW or murine plasma at a concentration of 1 μg/mL. Samples (10 μL) were subjected to protein precipitation either immediately or after 10 min incubation at room temperature (around 25 °C). A series of reagents were used for protein precipitation, including MeOH (300 μL) and 2% FA-ACN of different volumes (300, 140, 100, and 70 μL). After brief vortex, the samples were centrifuged at 15,000 rcf at 4 °C for 10 min, and the supernatants were collected for chromatographic analysis. In order to increase the signal intensity of highly water-soluble TIPP in organic solvents, a group of liquid–liquid extraction was carried out to separate the aqueous phase from the organic phase. After treating with 300 μL of 2% FA-ACN, the resulting supernatants (300 μL) were mixed with 500 μL of DCM for backwashing. […] After sample preparation, the processed samples were stored at −80 °C until analysis. Before sampling, the prepared sample was thawed, vortexed, and placed in the autosampler.
To choose the optimal stabilizer, the performance of DTT (30 mg/mL), L-AA (10 mg/mL), and PMSF (50 μg/mL) was evaluated. Plasma (90 μL) was mixed with each stabilizer (20 μL), and TIPP (10 μL, 5 μg/mL). The samples were subjected to protein precipitation either immediately or after 10 min incubation at room temperature. For protein precipitation, the samples added with 10 μL of S4 (3 μg/mL) were mixed with 300 μL of 2% FA-ACN and processed as discussed in Section 4.3.1. The aqueous layer was collected for chromatographic analysis. The recovery of TIPP with each stabilizer was determined. Moreover, the stabilizing effect of DTT was further evaluated with different concentrations (2.5, 5, 10, 20, 25, and 40 mg/mL), following the above protocol.

[3] = Elimination of TIPP after intravenous injection in mice (data not shown); type: in vivo
[4] = mouse, in vivo, sc, 50 mg/kg
Method: (§1) Whole blood was collected from inner canthus into a tube containing ethylenediaminetetraacetic acid (EDTA) and centrifuged at 5000 rcf for 3 min. Subsequently, 10 μL of plasma samples were diluted with 90 μL TDW. The sample processing process is then executed, and the diluted samples were mixed with 10 μL of S4 solution (3 μg/mL) and 300 μL of 2% FA-ACN in a tube containing 20 μL of DTT solution (25 mg/mL). After centrifugation at 15,000 rcf for 10 min, 300 μL supernatant was transferred to a new tube containing 500 μL of DCM. The mixture was vortexed and centrifuged at 15,000 rcf for 10 min, and the aqueous layer was loaded into the LC-MS/MS system.
(§2) After 4 h fasting (ad libitum water intake), mice were subcutaneously injected with 50 mg/kg TIPP. At 0.5, 1, 2, 5, 10, 15, 20, and 40 min post administration (eight mice at each time points), blood samples were taken from an inner canthus into tubes containing Na2·EDTA and centrifuged at 5000 rcf for 10 min to obtain plasma. All samples were processed as described in Section 4.5.1 immediately.
(§3) PK parameters were calculated as mean ± standard deviation (SD). The Cmax and the time to reach Tmax were calculated based on the highest concentration and the corresponding time point, and t1/2 was calculated from C0 to C40. The area under the curve during the 40 min window (AUC0→40) and the extrapolated value (AUC0→∞) were calculated using the trapezoidal rule, and the elimination rate and concentration at 40 min were extrapolated from 40 min to infinity. The CL/F and Vd/F were calculated using the first-order one-compartment model.
(§4) Analyst® 1.5 software (AB SCIEX) was used for HPLC-MS/MS data processing. A non-compartmental model was employed to fit the PK of TIPP in mice plasma using DAS 2.0 software. […] Results were compared using t test or one-way analysis of variance, which was followed by Dunnett’s multiple comparisons test, with p < 0.05 considered significant.

RBL-2H3 cells [5] = tested on: RBL-2H3 cells
Method: (§5) RBL-2H3 cells were obtained from the Cell Resource Center of Shanghai Institutes for Biological Sciences (Shanghai, China) and cultured in complete MEM containing 15% heat-inactivated FBS in a 37 °C incubator (5% CO2 and 95% air). […] To prepare final cell rinse samples, the cells were removed, the supernatant was rinsed with 1 mL of PBS five times, and 90 μL of the final cell rinse was collected and mixed with 10 μL of S4 solution (3 μg/mL) for chromatographic analysis directly. For the preparation of cell lysate samples, the cells (about 10^6 cells) were lysed with 130 μL of RIPA buffer for 30 min on ice, and 100 μL of the cell lysate was collected for sample pre-processing following Section 4.5.1.
(§6) RBL-2H3 cells were seeded in a 35 mm diameter dish at 8 × 10^5 cells and treated with 200 μg/mL TIPP for different durations (5 min, 10 min, 20 min, 30 min, 40 min, 1 h, 3 h, 6 h, 12 h, and 24 h). Then, the cells were subjected to the pre-processing procedures to prepare cell lysates, cell culture supernatants and the final cell rinse samples (Section 4.5.2). In addition, to study TIPP intracellular degradation, the cells were incubated with TIPP for 40 min, which was followed by incubation with TIPP-free medium for 10, 20, 30, 40, and 60 min, respectively. The cell lysates were then harvested at the above time points and pre-processed as presented in Section 4.5.2.

[6] = PK of TIPP via subcutaneous injection in mice; details: female, BALB/c, mouse, plasma, sc, 50 mg/kg; for MRT: mice, 50 mg/kg subcutaneous, mean ± SD, n = 8
Method: as §1, §2, §3, §4

RBL-2H3 cells [7] = experiment: Uptake of TIPP in RBL-2H3 cells by LC-MS/MS (lysates, supernatants, final rinse)
Method: as §5, §6

RBL-2H3 cells [8] = experiment: Confocal visualization of cellular localization of FITC-TIPP; type: cell-based, rat; details: confocal microscope
Method: RBL-2H3 cells (4 × 10^4) were seeded in a 35 mm confocal dish and treated with 367 μg/mL FITC-TIPP for 0, 5, 10, 20, 30, 40, and 60 min, respectively. Then, the cells were fixed with 4% paraformaldehyde solution for 10 min and permeabilized with 0.1% Triton-100 for 5 min, which was followed by nuclear staining in a dark place with Hoechst 33342 for 5 min. Finally, the cells were washed, stained with DiI dye solution for 10 min, rinsed with PBS three times, and analyzed with a confocal microscope.

[9] = -SH group substituted with the -OH group; cited from earlier work
Excerpt: The pharmacokinetic properties in animals and its action mechanism also need to be studied using reliable, accurate, and sensitive methods in order to develop TIPP into a new drug. Short peptides can be analyzed using fluorescence labeling, immunoassay, and liquid chromatography-tandem mass spectrometry (LC-MS/MS). Although the visualization and quantification of fluorescently labeled peptides are widely used, there are still some drawbacks. One such flaw is that fluorescent labeling might change the structure of small molecules, resulting in the alteration of physical and chemi ...

Molecule: C[C@H](N)C(=O)N[C@@H](CCC(=O)O)C(=O)N[C@@H](Cc1c[nH]c2ccccc12)C(=O)N[C@@H](CS)C(=O)N1CCC[C@H]1C(=O)O (H-AEWCP-OH)
- Stability in murine plasma, 4 weeks at −80 °C, HQC ([1]; HQC 4000 ng/mL, 4 weeks at −80 °C): 90.70 ± 0.12
- Stability in murine plasma, 4 h at room temperature, HQC ([1]; HQC 4000 ng/mL, 4 h at room temperature): 98.02 ± 0.04
- Stability in murine plasma, 24 h at 4 °C, HQC ([1]; HQC 4000 ng/mL, autosampler 24 h at 4 °C): 99.35 ± 0.84
- Stability in murine plasma, three freeze-thaw cycles, HQC ([1]; HQC 4000 ng/mL, three freeze-thaw cycles at −80–25 °C): 106.00 ± 0.16
- Stability in murine plasma, 4 weeks at −80 °C, LQC ([1]; LQC 50 ng/mL, 4 weeks at −80 °C): 90.70 ± 1.61
- Stability in murine plasma, 24 h at 4 °C, LQC ([1]; LQC 50 ng/mL, autosampler 24 h at 4 °C): 103.64 ± 2.00
- Stability in murine plasma, three freeze-thaw cycles, LQC ([1]; LQC 50 ng/mL, three freeze-thaw cycles at −80–25 °C): 94.23 ± 0.02
- Stability of TIPP in aqueous solution ([2]; 1 μg/mL in TDW, 10 min at room temperature (around 25 °C), protein precipitation with only organic reagents, LC-MS/MS intensity): remained stable
- Stability of TIPP in plasma without stabilizer ([2]; 1 μg/mL in murine plasma, 10 min at room temperature (around 25 °C), protein precipitation with only organic reagents, LC-MS/MS intensity): intensity decreased significantly
- Average recovery of TIPP in plasma with DTT as stabilizer ([2]; murine plasma, 20 mg/mL DTT, immediately or after 10 min at room temperature, LC-MS/MS, n = 3): higher than 95%
- Elimination after intravenous injection [3]: rapid elimination
- CL/F (apparent clearance rate) [4]: 6.34 ± 1.45 L/min/kg
- Intracellular t1/2 of TIPP (RBL-2H3 cells [5]): 5.596 min
- AUC(0-inf) [6]: 136 ng·h/mL
- AUC(0-t) [6]: 133 ng·h/mL
- Cmax [6]: 623 ± 67.1 ng/mL
- Tmax [6]: 10 min
- Vd/F [6]: 54.4 ± 20.9 L/kg
- half-life [6]: 5.99 ± 1.82 min
- level at 40 min [6]: ~20 ng/mL
- MRT ([6]; MRT(0–t)): 11.3 min
- MRT ([6]; MRT(0–∞)): 12.5 min
- Intracellular concentration of TIPP (cell lysate) at 20 min (RBL-2H3 cells [7]; 200 μg/mL TIPP, 20 min, cells rinsed five times with PBS, RIPA lysate, LC-MS/MS, n = 3): 24.57 ± 4.53 ng/mL
- Concentration of TIPP in cell culture supernatant at 12 h (RBL-2H3 cells [7]; 200 μg/mL TIPP, MEM with 15% FBS, 37 °C, 12 h, LC-MS/MS, n = 3): below the detection limit
- Concentration of TIPP in PBS rinse samples (RBL-2H3 cells [7]; 200 μg/mL TIPP, all PBS rinse samples, detection limit, LC-MS/MS): < 0.1 ng/mL
- Residual TIPP in the final cell rinse PBS (in words) (RBL-2H3 cells [7]; 200 μg/mL TIPP, fifth PBS rinse, LC-MS/MS): No residual TIPP was detected
- Intracellular concentration of TIPP (cell lysate), plateau (RBL-2H3 cells [7]; 200 μg/mL TIPP, from 30 min onwards, RIPA lysate, LC-MS/MS, n = 3): 38.62 ± 2.47 ng/mL
- Intracellular TIPP about 30 min after substituting TIPP-free medium (in words) (RBL-2H3 cells [7]; 40 min with 200 μg/mL TIPP, then TIPP-free medium for 30 min, cell lysates): almost eliminated; also recorded: decreased to near LLOQ

Molecule: C[C@H](NC(=O)CCCCCNC(=S)Nc1ccc2c(c1)C(=O)OC21c2ccc(O)cc2Oc2cc(O)ccc21)C(=O)N[C@@H](CCC(=O)O)C(=O)N[C@@H](Cc1c[nH]c2ccccc12)C(=O)N[C@@H](CS)C(=O)N1CCC[C@H]1C(=O)O [FITC-TIPP] ({FITC-Ahx}-AEWCP-OH)
- Co-localization of FITC-TIPP with RBL-2H3 cells (RBL-2H3 cells [8]; 367 μg/mL FITC-TIPP (same molar concentration as 200 μg/mL TIPP), fluorescence): co-localized with RBL-2H3 cells at 10 min
- Fluorescent signal of FITC-TIPP in cells over time (RBL-2H3 cells [8]; 367 μg/mL FITC-TIPP, after 30 min, Hoechst 33342 and DiI staining): remained steady after 30 min with significant intranuclear enrichment

Molecule: AEWSP [S4, analog of TIPP (AEWSP), used as the internal standard of the LC-MS/MS method]
- Stability compared with TIPP [9]: significantly improved
